According to PubChem BioAssay AID2060912 (Molecular Pharmacology Branch, DTP, NCI, 2025):
pIC50: −log10 of the molar value.

Tested on: HUVEC/MSC spheroids viability
Experiment: Human HUVEC/MSC cell line growth inhibition [KRAS2];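 for viability, T/C: percent of DMSO vehicle control luminescence so 100% = untreated viability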
Settings: for pIC50: curve of first compound; for viability, T/C: stronger effect = lower value
Excerpt: Multicellular complex tumor spheroid response to RAS pathway inhibitors in combination with a targeted agents in patient-derived cell lines with oncogenic KRAS variants from multiple cancer types
A high-throughput screen of multi-cell type tumor spheroids was designed to identify active combinations of targeted small molecules and KRAS pathway inhibitors. Complex spheroids include a stromal component modeled by human endothelial cells (HUVEC) and fibroblasts modeled by human mesenchymal stem cells (MSCs). The concentration ranges selected for each drug and investigational agent were based upon clinically achievable concentrations if the clinical Cmax of the agent was known. * [This particular assayID is a followup dataset requested by reviewers of the manuscript. It is a test of the HUVEC and MSC without the tumor cells, and was conducted using different drug plates and a different plate layout.]
Compounds. The drugs and investigational agents: BI-3406 (NSC825286), BAY-293 (NSC824723), batoprotafib (TNO155; NSC825523), sotorasib (AMG 510; NSC818433), MRTX1257 (NSC819558), elimusertib (BAY 1895344; NSC800525), molibresib (GSK525762; NSC774829), temuterkib (LY3214996; NSC803410), venetoclax (NSC766270), alisertib (NSC759677), olaparib (NSC753686), talazoparib (NSC767125), erdafitinib (NSC781556), ipatasertib (NSC767898), cabozantinib (NSC761068), nintedanib (NSC756659), abemaciclib (NSC768073), docetaxel (NSC628503), trametinib (NSC758246), and sapanisertib (NSC764658) were obtained from the National Cancer Institute (NCI) Developmental Therapeutics Program Chemical Repository. The FDA-approved anticancer drug set is available from the Developmental Therapeutics Program. […] The stock solutions were prepared in dimethyl sulfoxide (DMSO, Sigma-Aldrich, St. Louis, MO, cat. D2650) at 800-fold the tested concentration and stored at -70 degrees C prior to their use. All drugs and investigational agents were tested over a range starting from a high concentration at or near the clinical Cmax and decreasing in half-log increments. If the clinical Cmax for an agent had not been determined, the highest concentration tested was 10 microM.
Cell Culture. All cells were maintained in an incubator at 37 degrees C and 5% CO2 with 95% humidity. The PDC lines were cultured according to standard operating procedures established by the NCI PDMR (https://pdmr.cancer.gov/sops/default.htm). Briefly, all PDCs were thawed and cultured in Matrigel-coated flasks prepared with a working solution of 1X Ham's F-12 nutrient mix, without supplementation (Invitrogen, Waltham, MA, cat. 11765054), 100 U/mL penicillin-streptomycin (Invitrogen, cat. 15140122), and 2.5% Matrigel (Corning Inc., Corning, NY, cat. 354248) for the first three passages. All PDCs were cultured in complete DMEM/F-12 media containing advanced DMEM/F-12 (Invitrogen, cat. 12634028), 4.9% defined fetal bovine serum, heat inactivated (HyClone Laboratories Inc., Logan, UT, cat. SH30070.03HI), 389 ng/mL hydrocortisone (Sigma-Aldrich, cat. H4001), 9.7 ng/mL human EGF recombinant protein (Invitrogen, cat. PHG0313), 23.4 microg/mL adenine (Sigma-Aldrich, cat. A2786), 97.3 U/mL penicillin-streptomycin (Invitrogen, cat. 15140122), 1.9 mM L-glutamine (Invitrogen, cat. 25030081), and 9.7 microM Y-27632 dihydrochloride (Tocris Bioscience, Bristol, United Kingdom, cat. 1254). The PDCs were cultured in complete DMEM/F12 media without 9.7 microM Y-27632 dihydrochloride for at least two passages prior to the screen. The established cell line HOP-62 was cultured in RPMI 1640 medium, HEPES (Invitrogen, cat. 22400105) with 10% defined fetal bovine serum (HyClone Laboratories Inc., cat. SH30070.03) and 2 mM L-glutamine (Invitrogen, cat. 25030081). The pooled donor HUVEC were cultured in endothelial cell growth medium 2 (PromoCell, Heidelberg, Germany, cat. C-22011) and the hMSC were cultured in mesenchymal stem cell growth medium 2 (PromoCell, cat. C-28009). […]

[1] = second compound 0.0316 µM, first compound 0.0316 µM
[2] = second compound 0.0316 µM, first compound 0.1 µM
[3] = second compound 0.0316 µM, first compound 0.316 µM
[4] = second compound 0.0316 µM, first compound 1 µM
[5] = second compound 0.1 µM, first compound 0.0316 µM
[6] = second compound 0.1 µM, first compound 0.1 µM
[7] = second compound 0.1 µM, first compound 0.316 µM
[8] = second compound 0.1 µM, first compound 1 µM
[9] = second compound 0.316 µM, first compound 0.0316 µM
[10] = second compound 0.316 µM, first compound 0.1 µM
[11] = second compound 0.316 µM, first compound 0.316 µM
[12] = second compound 0.316 µM, first compound 1 µM
[13] = second compound 1 µM, first compound 0.0316 µM
[14] = second compound 1 µM, first compound 0.1 µM
[15] = second compound 1 µM, first compound 0.316 µM
[16] = second compound 1 µM, first compound 1 µM
[17] = second compound 3.16 µM, first compound 0.0316 µM
[18] = second compound 3.16 µM, first compound 0.1 µM
[19] = second compound 3.16 µM, first compound 0.316 µM
[20] = second compound 3.16 µM, first compound 1 µM
[21] = second compound 10 µM, first compound 0.0316 µM
[22] = second compound 10 µM, first compound 0.1 µM
[23] = second compound 10 µM, first compound 0.316 µM
[24] = second compound 10 µM, first compound 1 µM

COc1cc(Nc2ncc3c(n2)-c2ccc(Cl)cc2C(c2c(F)cccc2OC)=NC3)ccc1C(=O)O + CC1OCC2(CCN(c3cnc(Sc4ccnc(N)c4Cl)c(N)n3)CC2)C1N
pIC50 (second compound 0.0316 µM): < 5.00 | pIC50 (second compound 0.1 µM): < 5.00 | pIC50 (second compound 0.316 µM): < 5.00 | pIC50 (second compound 1 µM): 5.01 | pIC50 (second compound 3.16 µM): 5.03 | pIC50 (second compound 10 µM): 5.23 | viability, T/C [1]: 101% | viability, T/C [2]: 128% | viability, T/C [3]: 105% | viability, T/C [4]: 87.7% | viability, T/C (second compound 0.0316 µM, first compound 3.16 µM): 85.2% | viability, T/C (second compound 0.0316 µM, first compound 10 µM): 60.1% | viability, T/C [5]: 118% | viability, T/C [6]: 105% | viability, T/C [7]: 97.5% | viability, T/C [8]: 87.5% | viability, T/C (second compound 0.1 µM, first compound 3.16 µM): 103% | viability, T/C (second compound 0.1 µM, first compound 10 µM): 56.9% | viability, T/C [9]: 110% | viability, T/C [10]: 116% | viability, T/C [11]: 106% | viability, T/C [12]: 101% | viability, T/C (second compound 0.316 µM, first compound 3.16 µM): 94.7% | viability, T/C (second compound 0.316 µM, first compound 10 µM): 49.5% | viability, T/C [13]: 106% | viability, T/C [14]: 101% | viability, T/C [15]: 92.9% | viability, T/C [16]: 81.7% | viability, T/C (second compound 1 µM, first compound 3.16 µM): 77.2% | viability, T/C (second compound 1 µM, first compound 10 µM): 47.4% | viability, T/C [17]: 79.5% | viability, T/C [18]: 91% | viability, T/C [19]: 72.4% | viability, T/C [20]: 88.8% | viability, T/C (second compound 3.16 µM, first compound 3.16 µM): 79.2% | viability, T/C (second compound 3.16 µM, first compound 10 µM): 48.2% | viability, T/C [21]: 66.4% | viability, T/C [22]: 76% | viability, T/C [23]: 76% | viability, T/C [24]: 72.6% | viability, T/C (second compound 10 µM, first compound 3.16 µM): 70.8% | viability, T/C (second compound 10 µM, first compound 10 µM): 32.8%

CCN1CCN(Cc2ccc(Nc3ncc(F)c(-c4cc(F)c5nc(C)n(C(C)C)c5c4)n3)nc2)CC1 + COc1cc2nc(C)nc(NC(C)c3cc(N)cc(C(F)(F)F)c3)c2cc1OC1CCOC1
pIC50 (second compound 0.0316 µM): < 6.00 | pIC50 (second compound 0.1 µM): < 6.00 | pIC50 (second compound 0.316 µM): < 6.00 | pIC50 (second compound 1 µM): < 6.00 | pIC50 (second compound 3.16 µM): < 6.00 | pIC50 (second compound 10 µM): < 6.00 | viability, T/C (second compound 0.0316 µM, first compound 0.00316 µM): 93.3% | viability, T/C (second compound 0.0316 µM, first compound 0.01 µM): 77% | viability, T/C [1]: 87.6% | viability, T/C [2]: 80.3% | viability, T/C [3]: 93.4% | viability, T/C [4]: 122% | viability, T/C (second compound 0.1 µM, first compound 0.00316 µM): 77.7% | viability, T/C (second compound 0.1 µM, first compound 0.01 µM): 90.9% | viability, T/C [5]: 83.1% | viability, T/C [6]: 73.7% | viability, T/C [7]: 105% | viability, T/C [8]: 106% | viability, T/C (second compound 0.316 µM, first compound 0.00316 µM): 72.5% | viability, T/C (second compound 0.316 µM, first compound 0.01 µM): 92.5% | viability, T/C [9]: 79.4% | viability, T/C [10]: 79% | viability, T/C [11]: 96.1% | viability, T/C [12]: 121% | viability, T/C (second compound 1 µM, first compound 0.00316 µM): 76.1% | viability, T/C (second compound 1 µM, first compound 0.01 µM): 68.8% | viability, T/C [13]: 71.2% | viability, T/C [14]: 77.2% | viability, T/C [15]: 95.7% | viability, T/C [16]: 117% | viability, T/C (second compound 3.16 µM, first compound 0.00316 µM): 65.8% | viability, T/C (second compound 3.16 µM, first compound 0.01 µM): 74.4% | viability, T/C [17]: 65.4% | viability, T/C [18]: 69.9% | viability, T/C [19]: 77% | viability, T/C [20]: 103% | viability, T/C (second compound 10 µM, first compound 0.00316 µM): 63.7% | viability, T/C (second compound 10 µM, first compound 0.01 µM): 76.7% | viability, T/C [21]: 65.7% | viability, T/C [22]: 56.4% | viability, T/C [23]: 66.5% | viability, T/C [24]: 75%
